# Data as given in patent US6395738B1, “Benzofuran derivatives” (Kyowa Hakko Kogyo Co., Ltd., priority 1997, dated 2002).
# Structures can show the parent of a compound that is named as a salt. Where two headings read alike, the source gives them in different places.
# Legend:
# [1] = target: T1, Recombinant Human PDE IV Enzyme (HSPDE4A) (Homo sapiens, UniProt P27815); assay: Inhibition test on recombinant human PDE IV enzyme; assay type: biochemical; conditions: [3H]cAMP substrate
# T1 construct: except that 223 amino acids have been deleted from the N-terminal thereof; made in house; host or cells: E. coli
# Description: Inhibition Test on Recombinant Human PDE IV Enzyme
# Human phosphodiesterase cDNA (HSPDE4A) was isolated from testicles. Its predicted amino acid sequence is identical with the sequence (HSPDE4A5) reported by Bolger, G. et al. (Mol. Cell. Biol., 6558 (1993)) except that 223 amino acids have been deleted from the N-terminal thereof. This recombinant protein was expressed by an E. coli expression plasmid and then purified. The PDE activity was measured in the following 2-step process according to the method of Kincaid, R. and Manganiello, V. [Method. Enzymol., 159, 457 (1988)]. The substrate used was [^3H]cAMP (final concentration: […]), and the reaction was performed in a standard mixture containing N,N-bis(2-hydroxyethyl)-2-aminoethanesulfonic acid (50 mmol/l, pH 7.2), MgCl2 (1 mmol/l) and soybean trypsin inhibitor (0.1 mg/ml). The reaction was initiated by adding the enzyme thereto, and the mixture was incubated at 30° C. for 10 to 30 minutes. The reaction was quenched by hydrochloric acid, and the formed 5′-AMP was completely decomposed with […]. This sample was subjected to chromatography on DEAE-Sephadex A-25, and the eluted [^3H]adenosine was counted with a scintillation counter. The test compound was added after dissolved (concentration: 1.7%) in DMSO.
# [2] = tested on: Male Sunkus murinus; assay: Vomiting test on male Sunkus; assay type: in vivo; conditions: for Number of animals with vomiting/Number of tested animals: Dose (mg) 10, intraperitoneal, observed for 1 hour
# Description: Vomiting Test on Male Sunkus
# Male Sunkus murinus weighing about 60 g, 5 to 15 animals/group, were used in the test According to the method of Matsuki et al. (Japan J. Pharmacol., 48, 303 (1988)), each Sunkus animal was isolated and left in a wire-netting cage (15 cm width×21 cm length×15 cm height). Each test compound was suspended in physiological saline containing 0.5% Tween 80 and then intraperitoneally (i.p.) administered into each animal in a dose of 10 μl/g. […] The results were expressed in the number of animals with vomiting/the number of tested animals in the group given the test compound.
# Compounds P and Q were used as the comparative compounds.
# [3] = Water solubility; assay type: physicochemical
# Description: Further, Compound (I) has an amide structure containing a piperazine ring at the 2-position of the benzofuran skeleton and can be converted into a pharmaceutically acceptable acid addition salt. […] For example, Compound 1 upon conversion into monohydrochloride becomes dissolved in water at a ratio of 7.4 μg/ml.
# [4] = tested on: TNF α; assay: Inhibitory activity on production of TNF α in mouse model with LPS-induced sepsis; assay type: in vivo, BALB/c male mice; conditions: for Ratio of inhibition (%) of TNF α production: Dose (mg) 30, orally administered 90 minutes before LPS i.v., serum TNF α by ELISA 1 hour after LPS; for inhibitory activity on production of TNF α (in words): summary of Table 3
# [5] = concentration of test compound 10^−7 mol/L
# [6] = concentration of test compound 10^−8 mol/L
# T1 sequence (P27815 224-886 limits assumed): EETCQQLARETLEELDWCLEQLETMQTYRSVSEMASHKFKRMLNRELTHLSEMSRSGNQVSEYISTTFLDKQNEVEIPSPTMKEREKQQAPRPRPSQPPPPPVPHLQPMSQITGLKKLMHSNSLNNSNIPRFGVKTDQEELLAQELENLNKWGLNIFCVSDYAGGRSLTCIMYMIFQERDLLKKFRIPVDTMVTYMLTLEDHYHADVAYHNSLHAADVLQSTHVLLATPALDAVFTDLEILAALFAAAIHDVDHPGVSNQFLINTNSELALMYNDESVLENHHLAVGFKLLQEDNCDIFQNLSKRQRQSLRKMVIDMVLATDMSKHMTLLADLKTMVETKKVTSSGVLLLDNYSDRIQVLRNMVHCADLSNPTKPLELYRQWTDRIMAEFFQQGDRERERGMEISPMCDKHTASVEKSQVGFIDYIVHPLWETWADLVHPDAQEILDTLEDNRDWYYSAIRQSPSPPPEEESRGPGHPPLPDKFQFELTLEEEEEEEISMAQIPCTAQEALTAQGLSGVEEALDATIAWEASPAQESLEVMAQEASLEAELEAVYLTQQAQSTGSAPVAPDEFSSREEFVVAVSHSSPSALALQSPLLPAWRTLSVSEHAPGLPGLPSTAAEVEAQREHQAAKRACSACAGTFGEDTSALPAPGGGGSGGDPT
Structure (SMILES),"Ratio of inhibition (%) [1, 5]","Ratio of inhibition (%) [1, 6]",Number of animals with vomiting/Number of tested animals [2],"solubility ([3]; Compound 1 upon conversion into monohydrochloride, read-out: dissolved in water (water solubility))",Ratio of inhibition (%) of TNF α production [4],melting point,vomiting as a side effect (in words) ([2]; summary of Table 4),inhibitory activity on production of TNF α (in words) [4],solubility ([3]; read-out: water solubility)
"COc1ccc(C(=O)Nc2c(Cl)cncc2Cl)c2cc(C(=O)N3CCN(C)CC3)oc12 [Compound 1, 4-(3,5-Dichloro-4-pyridyl)carbamoyl-7-methoxy-2-(4-methyl-1-piperazinyl)carbonylbenzofuran]",75%,25%,0/5,7.4 µg/mL,68%,224 to 225 °C,–,–,–
"COc1ccc(C(=O)Nc2c(Cl)cncc2Cl)c2cc(C(=O)N3CCN(CCO)CC3)oc12 [Compound 2, 4-(3,5-Dichloro-4-pyridyl)carbamoyl-2-[4-(2-hydroxyethyl)-1-piperazinyl]carbonyl-7-methoxybenzofuran]",72%,22%,0/5,–,65%,164 to 165 °C,–,–,–
"CCN1CCN(C(=O)c2cc3c(C(=O)Nc4c(Cl)cncc4Cl)ccc(OC)c3o2)CC1.O=C(O)/C=C/C(=O)O [Compound 3, 4-(3,5-Dichloro-4-pyridyl)carbamoyl-2-(4-ethyl-1-piperazinyl)carbonyl-7-methoxybenzofuran monofumarate]",71%,20%,–,–,50%,202 to 204 °C,–,–,–
"COC(=O)c1ccc(C(=O)Nc2c(Cl)cncc2Cl)c2cc(N3CCN(C(C)CO)CC3)oc12 (stereo not shown) [Compound 4, 4-(3,5-Dichloro-4-pyridyl)carbamoyl-2-[4-(1-hydroxy-2-propyl)-1-piperazinyl]-7-methoxycarbonylbenzofuran]",85%,28%,–,–,–,148 to 150 °C,–,–,–
"CCC(CO)N1CCN(C(=O)c2cc3c(C(=O)Nc4c(Cl)cncc4Cl)ccc(OC)c3o2)CC1 (stereo not shown) [Compound 5, 4-(3,5-Dichloro-4-pyridyl)carbamoyl-2-[4-(1-hydroxy-2-butyl)-1-piperazinyl]carbonyl-7-methoxybenzofuran]",89%,41%,–,–,53%,192 to 194 °C,–,–,–
"COc1ccc(C(=O)Nc2c(Cl)cncc2Cl)c2cc(C(=O)N3CCN(CCCO)CC3)oc12 [Compound 6, 4-(3,5-Dichloro-4-pyridyl)carbamoyl-2-(4-hydroxypropyl-1-piperazinyl)carbonyl-7-methoxybenzofuran]",81%,24%,–,–,33%,180 to 182 °C,–,–,–
"COc1ccc(C(=O)Nc2c(Cl)cncc2Cl)c2cc(C(=O)N3CCN(CCCCO)CC3)oc12 [Compound 7, 4-(3,5-Dichloro-4-pyridyl)carbamoyl-2-(4-hydroxybutyl-1-piperazinyl)carbonyl-7-methoxybenzofuran]",83%,35%,–,–,–,–,–,–,–
"COc1ccc(C(=O)Nc2c(Cl)cncc2Cl)c2cc(C(=O)N3CCN(CCOCCO)CC3)oc12 [Compound 9, 4-(3,5-Dichloro-4-pyridyl)carbamoyl-2-{4-[2-(2-hydroxyethoxy)ethyl]-1-piperazinyl}carbonyl-7-methoxybenzofuran]",78%,29%,–,–,–,132 to 133 °C,–,–,–
"COc1ccc(C(=O)Nc2c(Cl)cncc2Cl)c2cc(C(=O)N3CC(C)N(C)C(C)C3)oc12 (stereo not shown) [Compound 10, 4-(3,5-Dichloro-4-pyridyl)carbamoyl-7-methoxy-2-(3,4,5-trimethyl-1-piperazinyl)carbonylbenzofuran]",75%,9%,–,–,46%,234 to 236 °C,–,–,–
"COc1ccc(C(=O)Nc2c(Cl)cncc2Cl)c2cc(C(=O)N3CC(C)N(CCO)C(C)C3)oc12 (stereo not shown) [Compound 11, 4-(3,5-Dichloro-4-pyridyl)carbamoyl-2-(3,5-dimethyl-4-hydroxyethyl-7-methoxy-1-piperazinyl)carbonylbenzofuran]",88%,48%,–,–,–,–,–,–,–
"COc1ccc(C(=O)Cc2c(Cl)cncc2Cl)c2cc(C(=O)N3CCN(C)CC3)oc12 [Compound 13, 4-[2-(3,5-Dichloro-4-pyridyl)-1-oxoethyl]-2-(4-methyl-1-piperazinyl)carbonyl-7-methoxybenzofuran]",–,–,0/5,–,65%,160 to 161 °C,–,–,–
"COc1ccc(C(=O)Cc2c(Cl)cncc2Cl)c2cc(C(=O)N3CCN(CCO)CC3)oc12 [Compound 14, 4-[2-(3,5-Dichloro-4-pyridyl)-1-oxoethyl]-2-[4-(2-hydroxyethyl)-1-piperazinyl]carbonyl-7-methoxybenzofuran]",–,–,0/5,–,65%,155 to 156 °C,–,–,–
"COc1ccc(C(=O)Cc2c(Cl)cncc2Cl)c2cc(C(=O)N3CCN(C(CO)CO)CC3)oc12 [Compound 22, 4-[2-(3,5-Dichloro-4-pyridyl)-1-oxoethyl]-2-[4-(1,3-dihydroxy-2-propyl)-1-piperazinyl]carbonyl-7-methoxybenzofuran]",–,–,–,–,52%,213 to 215 °C,–,–,–
"COc1ccc(C(=O)Cc2c(Cl)cncc2Cl)c2cc(C(=O)N3CC(C)N(C)C(C)C3)oc12 (stereo not shown) [Compound 25, 4-[2-(3,5-Dichloro-4-pyridyl)-1-oxoethyl]-7-methoxy-2-(3,4,5-trimethyl-1-piperazinyl)carbonylbenzofuran]",–,–,–,–,53%,173 to 174 °C,–,–,–
"COc1ccc(C(=O)Cc2ccncc2)c2c1OC1(CCCC1)C2 [Compound P, 7-methoxy-4-[1-oxo-2-(4-pyridyl)ethyl]-spiro[2,3-dihydrobenzofuran-2,1′-cyclopentane].hydrochloride, reference compound]",–,–,5/5,–,81%,–,caused vomiting,high inhibitory activity,–
"COc1ccc(C(=O)Nc2c(Cl)cncc2Cl)c2cc(C(=O)c3ccccc3)oc12 [Compound Q, 2-benzoyl-4-(3,5-dichloro-4-pyridyl)carbamoyl-7-methoxybenzofuran, reference compound]",–,–,0/5,–,30%,–,–,high inhibitory activity,≤ 1 µg/mL
